# Assay results published in US20250263404A1, “AMINOPYRIDINES AS ACTIVATORS OF PI3 KINASE” (UCL Business Ltd, priority 2021, published 2025).
# How the values were obtained:
# [1] = tested on: pAKT^S473 in mouse embryonic fibroblasts (MEFs); assay: pAKT S473 by Wes western blotting in MEFs; assay type: cell-based
# Excerpt: The inventors next monitored the activation of AKT, the best-known PI3K effector stimulated by PIP3/PI(3,4)P2 production in cells. […] As previously reported, PI3Kα-null MEFs still respond to insulin, but now in a PI3Kβ-dependent manner, as shown by sensitivity of insulin-stimulated pAKT^S473 to the PI3Kβ-selective inhibitor TGX-221 (FIG. 3b). […] Similar observations were made for mTORC1 pathway activation, as measured by S6 (Ser240/44) and 4EBP1 (Ser65) phosphorylation (FIG. 3e). […] Experiments with A549 cells and MEFs were performed separately using slightly different protocols. Briefly, A549 cells were seeded at 200,000 cells per well in 24-well plates in DMEM (10% FBS+1% P/S) and allowed to adhere overnight. The next day, cells were washed once with PBS before addition of serum-free DMEM for 24 h. On the day of treatment, cells were incubated in fresh serum-free DMEM prior to treatment. […]
# G106V mutant of p110α = molecular target: T1, G106V mutant of p110α (Homo sapiens, UniProt P42336, G106V); assay: FRET membrane binding, oncogenic mutant G106V; assay type: biochemical
# T1 construct: Full-length p110α was expressed in a complex with full-length p85α (for biochemistry and HDX-MS); 6xHis followed by TEV protease site (N); made in house; host or cells: Spodoptera frugiperda Sf9 (plasmid JB35)
# T1 sequence (P42336 whole entry G106V): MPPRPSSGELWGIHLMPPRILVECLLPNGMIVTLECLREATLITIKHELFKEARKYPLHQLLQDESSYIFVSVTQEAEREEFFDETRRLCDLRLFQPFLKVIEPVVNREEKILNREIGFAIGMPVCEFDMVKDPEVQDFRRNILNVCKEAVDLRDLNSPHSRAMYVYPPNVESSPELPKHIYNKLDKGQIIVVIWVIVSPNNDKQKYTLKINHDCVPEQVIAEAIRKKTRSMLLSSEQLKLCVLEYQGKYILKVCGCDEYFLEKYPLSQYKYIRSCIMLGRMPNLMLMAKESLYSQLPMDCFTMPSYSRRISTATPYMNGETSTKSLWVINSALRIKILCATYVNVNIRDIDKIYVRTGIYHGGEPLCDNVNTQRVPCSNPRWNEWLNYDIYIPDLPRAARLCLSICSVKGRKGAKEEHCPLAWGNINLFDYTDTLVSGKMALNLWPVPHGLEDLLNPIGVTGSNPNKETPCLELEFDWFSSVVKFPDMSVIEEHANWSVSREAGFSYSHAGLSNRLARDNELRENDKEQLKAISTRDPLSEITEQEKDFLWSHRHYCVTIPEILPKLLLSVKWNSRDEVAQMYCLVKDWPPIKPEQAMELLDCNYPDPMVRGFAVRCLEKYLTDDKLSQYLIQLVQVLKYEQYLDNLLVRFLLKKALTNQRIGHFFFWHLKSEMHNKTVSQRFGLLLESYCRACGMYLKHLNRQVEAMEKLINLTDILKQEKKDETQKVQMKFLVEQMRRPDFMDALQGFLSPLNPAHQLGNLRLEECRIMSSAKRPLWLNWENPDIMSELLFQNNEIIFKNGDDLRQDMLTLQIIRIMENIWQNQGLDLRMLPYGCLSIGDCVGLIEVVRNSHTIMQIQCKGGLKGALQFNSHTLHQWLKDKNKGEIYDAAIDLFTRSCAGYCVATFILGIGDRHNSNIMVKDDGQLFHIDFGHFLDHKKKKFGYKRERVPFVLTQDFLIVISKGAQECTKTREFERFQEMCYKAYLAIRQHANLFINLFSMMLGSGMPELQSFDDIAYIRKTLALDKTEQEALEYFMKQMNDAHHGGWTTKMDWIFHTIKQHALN
# T1 sequence (P27986 whole entry partner): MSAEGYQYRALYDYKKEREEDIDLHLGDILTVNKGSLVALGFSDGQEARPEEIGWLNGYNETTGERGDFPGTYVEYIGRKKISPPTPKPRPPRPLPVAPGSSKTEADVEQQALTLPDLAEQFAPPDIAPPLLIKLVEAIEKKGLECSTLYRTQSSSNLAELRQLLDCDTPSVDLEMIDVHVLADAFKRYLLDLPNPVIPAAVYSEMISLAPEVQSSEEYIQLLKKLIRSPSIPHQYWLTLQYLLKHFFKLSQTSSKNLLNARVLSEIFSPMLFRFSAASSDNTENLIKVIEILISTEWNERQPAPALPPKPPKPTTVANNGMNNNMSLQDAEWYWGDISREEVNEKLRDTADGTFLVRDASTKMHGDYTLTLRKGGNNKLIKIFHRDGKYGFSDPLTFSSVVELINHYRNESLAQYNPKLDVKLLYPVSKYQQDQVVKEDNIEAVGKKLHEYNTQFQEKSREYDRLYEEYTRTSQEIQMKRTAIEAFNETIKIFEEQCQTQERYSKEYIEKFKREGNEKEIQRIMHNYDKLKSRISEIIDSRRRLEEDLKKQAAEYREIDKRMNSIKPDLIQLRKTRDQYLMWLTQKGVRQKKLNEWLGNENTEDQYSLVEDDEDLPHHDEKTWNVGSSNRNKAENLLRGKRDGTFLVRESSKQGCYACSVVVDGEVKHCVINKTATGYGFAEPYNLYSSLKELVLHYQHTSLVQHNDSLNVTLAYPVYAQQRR
# Description: Co-stimulation of 1938 with pY led to an additive activatory effect for G106V, but not for the N345K and E545K mutants (FIG. 1f/FIG. 22f).
# Membrane binding assays were performed as previously published (Burke, J. E. et al. Proc Natl Acad Sci USA 109, 15259-15264 (2012)). Briefly, liposomes were prepared with 5% (w/v) brain PtdIns(4,5)P2, 20% brain phosphatidylserine, 35% brain phosphatidylethanolamine, 15% brain phosphatidylcholine, 10% cholesterol, 5% sphingomyelin, and 10% dansyl-phosphatidylserine (Avanti Polar Lipids). PI3Kα was used at a final concentration of 0.5 μM. Protein solutions were preincubated with 10 μM pY or compounds for 10 min before addition of liposomes. Liposomes were used at a final concentration of 50 μg/ml. The reaction mixture contained 5 μl enzyme, 2 μl compound and 3 μl liposomes, all diluted in 30 mM HEPES, 50 mM NaCl, pH 7.4. The reaction was allowed to proceed for 10 min at room temperature in 384 black-polystyrene plates (Corning #3544) on an orbital shaker at 200 rpm. FRET signals were measured using PHERAStar (BMG) with a 280 nm excitation filter with 350 nm and 520 nm emission filters to measure Dansyl-PS FRET emissions, respectively. FRET signal shown as I-I0, where I is the intensity at 520 nm, and 10 is the intensity at 520 nm for the solution in the absence of protein.
smiles,measurement,setting,value
CCN1CCN(c2ccc(Nc3cc(Nc4cccc5c4N(C(C)=O)CC5)ccn3)cc2)CC1 [Example 1938],EC50,"[1]; Mus musculus, Fibroblast, 0.25 h, read-out: EC50 for induction of pAKT, MEFs, 15 min treatment",2 to 4 µM
same,pAKT^S473 in PI3Kα-null MEFs,"[1]; PI3Kα-null MEFs, 15 min",no pAKT^S473 phosphorylation was observed
same,membrane binding of G106V,G106V mutant of p110α,did not increase
